From patent US20240041832A1, “METHODS AND COMPOSITIONS FOR TREATING EYE DISEASES” (JENIVISION INC., priority 2021, published 2024)

Assays:
[1] = Biodistribution of Beta-Carotene after periorbital skin administration (Example 4); type: in vivo, cynomolgus monkeys; conditions: for concentration at 3 h / concentration at 0.5 h / concentration at 6 h / concentration at 24 h: cynomolgus monkey, topical; for concentration at 3 h: 507.6 μg/left eye
Protocol: [The procedure below names another target; the source lists this target under the same test.] (§1) This is supported by results obtained with a markedly different compound docosahexaenoic acid (DHA), which are shown in Table 2. An oil solution comprising 14.85 mg/mL β-Carotene+198.02 mg/ml DHA in linoleic acid was administered to one eye (OD) by circumferential topical application to the periorbital skin that surrounds the anterior portion of the globe. Blood samples (1 mL) and were collected at 0, 0.5, 2, 6, and 24 hours after a single administration to the periorbital skin of the right eye (OD) At each of the above pre-designated time points, one animal was euthanized after blood collection and selected eye tissue samples were collected from both eyes. The following representative tissues were collected; upper eyelid, cornea, retina, and vitreous humor. DHA concentrations in the samples were determined by the LC-MS/MS method. The DHA was administered via NIODP at the dose of 6775.1±92.5 μg per eye (mean±SEM), to the left eye of monkeys in the pharmacokinetics and biodistribution study. Again, for convenience of sample processing, only upper eyelids were collected. Substantial quantities of DHA (>10 μg/g) remained in the upper eyelid/periorbital region, retina, and cornea, at all tested time points of 0.5, 3, 6 and 24-hour post dosing. […] Compared to the BLQ baseline, plasma concentrations of DHA were between 1.2 and 3.1 μg/ml, equivalent to […] (MW 328.5) via NIODP. The plasma Cmax was at 0.5 hours post-dose.
Thus, not all compounds are readily uptaken and distributed to the posterior area of the eye.

[2] = Biodistribution of DHA after periorbital skin administration (Example 4); type: in vivo, cynomolgus monkeys; conditions: for concentration at 0.5 h / concentration at 24 h / concentration at 3 h / concentration at 6 h: cynomolgus monkey, topical; for concentration at 0.5 h: 6567.89 μg/left eye; for concentration at 24 h: 6746.51 μg/left eye; for concentration at 3 h: 6768.26 μg/left eye; for concentration at 6 h: 7017.66 μg/left eye
Protocol: as §1

[3] = 0.5 h, 492.59 μg/left eye periorbital skin
[4] = 3 h, 507.60 μg/left eye periorbital skin
[5] = 6 h, 526.32 μg/left eye periorbital skin
[6] = 24 h, 505.99 μg/left eye periorbital skin
[7] = 0.5 h, 6567.89 μg/left eye periorbital skin
[8] = 3 h, 6768.26 μg/left eye periorbital skin
[9] = 6 h, 7017.66 μg/left eye periorbital skin
[10] = 24 h, 6746.51 μg/left eye periorbital skin

SMILES: CC1=C(/C=C/C(C)=C/C=C/C(C)=C/C=C/C=C(C)/C=C/C=C(C)/C=C/C2=C(C)CCCC2(C)C)C(C)(C)CCC1 [Beta-Carotene, β-Carotene]
- % of administered dose, Left cornea [1, 3]: 0.000%
- % of administered dose, Left retina [1, 3]: 0.000%
- % of administered dose, Left upper eyelid [1, 3]: 0.19%
- % of administered dose, Left vitreous humor [1, 3]: 0.000%
- Drug Concentration in Plasma ([1]; 0.5 h, 492.59 μg/left eye periorbital skin, animal 101): BLQ
- % of administered dose, Left cornea [1, 4]: 0.000%
- % of administered dose, Left retina [1, 4]: 0.000%
- % of administered dose, Left upper eyelid [1, 4]: 0.44%
- % of administered dose, Left vitreous humor [1, 4]: 0.000%
- Drug Concentration in Plasma ([1]; 3 h, 507.60 μg/left eye periorbital skin, animal 102): BLQ
- % of administered dose, Left cornea [1, 5]: 0.000%
- % of administered dose, Left retina [1, 5]: 0.000%
- % of administered dose, Left upper eyelid [1, 5]: 0.000%
- % of administered dose, Left vitreous humor [1, 5]: 0.000%
- Drug Concentration in Plasma ([1]; 6 h, 526.32 μg/left eye periorbital skin, animal 103): BLQ
- % of administered dose, Left cornea [1, 6]: 0.000%
- % of administered dose, Left retina [1, 6]: 0.000%
- % of administered dose, Left upper eyelid [1, 6]: 0.000%
- % of administered dose, Left vitreous humor [1, 6]: 0.000%
- Drug Concentration in Plasma ([1]; 24 h, 505.99 μg/left eye periorbital skin, animal 104): BLQ
- uptake and biodistribution following periorbital administration ([1]; compared with DHA in the same formulation): not as readily uptaken and biodistributed
- concentration at 3 h ([1]; cornea, 3 h, 507.60 μg/left eye periorbital skin, read-out: Drug Concentration in Tissue, Cornea): 0 ng/g
- concentration at 0.5 h ([1]; cornea, 0.5 h, 492.59 μg/left eye periorbital skin, read-out: Drug Concentration in Tissue, Cornea): 0 ng/g
- concentration at 6 h ([1]; cornea, 6 h, 526.32 μg/left eye periorbital skin, read-out: Drug Concentration in Tissue, Cornea): 0 ng/g
- concentration at 24 h ([1]; cornea, 24 h, 505.99 μg/left eye periorbital skin, read-out: Drug Concentration in Tissue, Cornea): 0 ng/g
- concentration at 3 h ([1]; retina, 3 h, 507.60 μg/left eye periorbital skin, read-out: Drug Concentration in Tissue, Retina): 0 ng/g
- concentration at 0.5 h ([1]; retina, 0.5 h, 492.59 μg/left eye periorbital skin, read-out: Drug Concentration in Tissue, Retina): 0 ng/g
- concentration at 6 h ([1]; retina, 6 h, 526.32 μg/left eye periorbital skin, read-out: Drug Concentration in Tissue, Retina): 0 ng/g
- concentration at 24 h ([1]; retina, 24 h, 505.99 μg/left eye periorbital skin, read-out: Drug Concentration in Tissue, Retina): 0 ng/g
- concentration at 3 h ([1]; upper eyelid, 3 h, 507.60 μg/left eye periorbital skin, read-out: Drug Concentration in Tissue, Upper eyelid): 36000 ng/g
- concentration at 0.5 h ([1]; upper eyelid, 0.5 h, 492.59 μg/left eye periorbital skin, read-out: Drug Concentration in Tissue, Upper eyelid): 12600 ng/g
- concentration at 6 h ([1]; upper eyelid, 6 h, 526.32 μg/left eye periorbital skin, read-out: Drug Concentration in Tissue, Upper eyelid): 0 ng/g
- concentration at 24 h ([1]; upper eyelid, 24 h, 505.99 μg/left eye periorbital skin, read-out: Drug Concentration in Tissue, Upper eyelid): 0 ng/g
- concentration at 3 h ([1]; vitreous humor, 3 h, 507.60 μg/left eye periorbital skin, read-out: Drug Concentration in Tissue, Vitreous humor): 0 ng/g
- concentration at 0.5 h ([1]; vitreous humor, 0.5 h, 492.59 μg/left eye periorbital skin, read-out: Drug Concentration in Tissue, Vitreous humor): 0 ng/g
- concentration at 6 h ([1]; vitreous humor, 6 h, 526.32 μg/left eye periorbital skin, read-out: Drug Concentration in Tissue, Vitreous humor): 0 ng/g
- concentration at 24 h ([1]; vitreous humor, 24 h, 505.99 μg/left eye periorbital skin, read-out: Drug Concentration in Tissue, Vitreous humor): 0 ng/g

SMILES: CC/C=C\C/C=C\C/C=C\C/C=C\C/C=C\C/C=C\CCC(=O)O [DHA, docosahexaenoic acid]
- maximum in retina ([2]; 0.5-hour post dosing): 111 µg/g
- % of administered dose, Left cornea [2, 7]: 0.03%
- % of administered dose, Left retina [2, 7]: 0.04%
- % of administered dose, Left upper eyelid [2, 7]: 0.42%
- % of administered dose, Left vitreous humor [2, 7]: 0.00%
- Drug Concentration in Plasma ([2]; 0.5 h, 6567.89 μg/left eye periorbital skin, animal 101): 2160 ng/mL
- % of administered dose, Left cornea [2, 8]: 0.01%
- % of administered dose, Left retina [2, 8]: 0.04%
- % of administered dose, Left upper eyelid [2, 8]: 0.38%
- % of administered dose, Left vitreous humor [2, 8]: 0.00%
- Drug Concentration in Plasma ([2]; 3 h, 6768.26 μg/left eye periorbital skin, animal 102): 3130 ng/mL
- % of administered dose, Left cornea [2, 9]: 0.01%
- % of administered dose, Left retina [2, 9]: 0.01%
- % of administered dose, Left upper eyelid [2, 9]: 0.01%
- % of administered dose, Left vitreous humor [2, 9]: 0.00%
- Drug Concentration in Plasma ([2]; 6 h, 7017.66 μg/left eye periorbital skin, animal 103): 2110 ng/mL
- % of administered dose, Left cornea [2, 10]: 0.02%
- % of administered dose, Left retina [2, 10]: 0.03%
- % of administered dose, Left upper eyelid [2, 10]: 0.02%
- % of administered dose, Left vitreous humor [2, 10]: 0.00%
- Drug Concentration in Plasma ([2]; 24 h, 6746.51 μg/left eye periorbital skin, animal 104): 1150 ng/mL
- DHA in vitreous humor ([2]; LLOQ 0.5 μg/ml): below the limit of quantification (BLQ)
- DHA in upper eyelid/periorbital region, retina and cornea ([2]; all tested time points of 0.5, 3, 6 and 24-hour, NIODP 6775.1±92.5 μg per eye): > 10 µg/g
- concentration at 0.5 h ([2]; left cornea, 0.5 h, 6567.89 μg/left eye periorbital skin, read-out: Drug Concentration in Tissue, Left cornea): 66300 ng/g
- concentration at 24 h ([2]; left cornea, 24 h, 6746.51 μg/left eye periorbital skin, read-out: Drug Concentration in Tissue, Left cornea): 25900 ng/g
- concentration at 3 h ([2]; left cornea, 3 h, 6768.26 μg/left eye periorbital skin, read-out: Drug Concentration in Tissue, Left cornea): 21600 ng/g
- concentration at 6 h ([2]; left cornea, 6 h, 7017.66 μg/left eye periorbital skin, read-out: Drug Concentration in Tissue, Left cornea): 22300 ng/g
- concentration at 0.5 h ([2]; left retina, 0.5 h, 6567.89 μg/left eye periorbital skin, read-out: Drug Concentration in Tissue, Left retina): 111000 ng/g
- concentration at 24 h ([2]; left retina, 24 h, 6746.51 μg/left eye periorbital skin, read-out: Drug Concentration in Tissue, Left retina): 47300 ng/g
- concentration at 3 h ([2]; left retina, 3 h, 6768.26 μg/left eye periorbital skin, read-out: Drug Concentration in Tissue, Left retina): 66700 ng/g
- concentration at 6 h ([2]; left retina, 6 h, 7017.66 μg/left eye periorbital skin, read-out: Drug Concentration in Tissue, Left retina): 78600 ng/g
- concentration at 0.5 h ([2]; left upper eyelid, 0.5 h, 6567.89 μg/left eye periorbital skin, read-out: Drug Concentration in Tissue, Left upper eyelid): 381000 ng/g
- concentration at 24 h ([2]; left upper eyelid, 24 h, 6746.51 μg/left eye periorbital skin, read-out: Drug Concentration in Tissue, Left upper eyelid): 16200 ng/g
- concentration at 3 h ([2]; left upper eyelid, 3 h, 6768.26 μg/left eye periorbital skin, read-out: Drug Concentration in Tissue, Left upper eyelid): 420000 ng/g
- concentration at 6 h ([2]; left upper eyelid, 6 h, 7017.66 μg/left eye periorbital skin, read-out: Drug Concentration in Tissue, Left upper eyelid): 10700 ng/g
- concentration at 0.5 h ([2]; left vitreous humor, 0.5 h, 6567.89 μg/left eye periorbital skin, BLQ given 0, read-out: Drug Concentration in Tissue, Left vitreous humor): 0 ng/g
- concentration at 24 h ([2]; left vitreous humor, 24 h, 6746.51 μg/left eye periorbital skin, BLQ given 0, read-out: Drug Concentration in Tissue, Left vitreous humor): 0 ng/g
- concentration at 3 h ([2]; left vitreous humor, 3 h, 6768.26 μg/left eye periorbital skin, BLQ given 0, read-out: Drug Concentration in Tissue, Left vitreous humor): 0 ng/g
- concentration at 6 h ([2]; left vitreous humor, 6 h, 7017.66 μg/left eye periorbital skin, BLQ given 0, read-out: Drug Concentration in Tissue, Left vitreous humor): 0 ng/g
- concentration at 0.5 h ([2]; plasma, 0.5 h, 6567.89 μg/left eye periorbital skin, animal 101, read-out: Drug Concentration in Plasma): 2200 ng/mL
- concentration at 24 h ([2]; plasma, 24 h, 6746.51 μg/left eye periorbital skin, animal 104, read-out: Drug Concentration in Plasma): 1200 ng/mL
- concentration at 3 h ([2]; plasma, 3 h, 6768.26 μg/left eye periorbital skin, animal 102, read-out: Drug Concentration in Plasma): 3100 ng/mL
- concentration at 6 h ([2]; plasma, 6 h, 7017.66 μg/left eye periorbital skin, animal 103, read-out: Drug Concentration in Plasma): 2100 ng/mL
- dose gradient via NIODP ([2]; periorbital skin): eyelid≈retina>cornea>>vitreous humor=0
